In patent US10471025B2, “Compositions for use in treating parkinson's disease and related disorders” (Technophage, Investigação E Desenvolvimento Em …, priority 2015, dated 2019):
Several values for one entry are separate records, joined by “and”; a condition that tells them apart may be missing. Equal entries are not always repeated. Entries after “also recorded” stand apart in the source; their conditions may differ. Where two headings read alike, the source gives them in different places.

Tests used:
[1] = test system: 6-OHDA treated zebrafish larvae; experiment: Freezing (duration of freezing periods, light/dark stimulus) in 6-OHDA zebrafish larvae; type: in vivo; settings: for Freezing recovery: optimal concentrations, methylphenidate 25 μM; for Duration of freezing periods, recovery vs 6-OHDA treated larvae: tapentadol 48.5, stavudine 50, nabumetone 0.91 μM, L-Dopa treatment
Method: In the zebrafish model, the locomotor impairment was measured and related with bradykinesia in patients. Tests included evaluating ‘freezing_ in response to a light/dark stimulus. 6-OHDA induced larvae had fewer freezing episodes but spent longer periods in the frozen state. In previous studies, the duration of freezing episodes has been analyzed in PD patients. […] Nonetheless, it is an inhibitor of the neuronal dopamine transporter and since 6-OHDA needs DAT to enter the neuron and induce the disease, methylphenidate may be a false positive.
As FIGS. 9B-9C show, freezing recovery was tested using 7 candidate molecules at optimal concentrations, in an exemplary experiment with n=8 fish, and methylphenidate and amantadine at 25 ? M.

[2] = test system: 6-OHDA treated zebrafish larvae; experiment: LD50 / lethality in the disease context of the zebrafish model
[3] = test system: 6-OHDA treated zebrafish larvae; experiment: Co-administration with L-Dopa, total distance 6-OHDA larvae move; type: in vivo; settings: total distance; L-Dopa 250 or 125 μM
[4] = test system: 6-OHDA treated zebrafish larvae; experiment: Locomotor behavior rescue (total distance moved, number of jumps) in 6-OHDA zebrafish PD model; type: in vivo; settings: for Optimal concentration: behavioral experiments and TH+ cell counts; for Number of jumps: concentration validated as recovering the 6-OHDA induced behavior / Total distance travelled, difference between treated larvae and disease control: zebrafish, in vivo
From the text: To model Parkinson ̆s disease (PD), a neurotoxin 6-OHDA (6-hyroxydopamine) based method was used in zebrafish and in mice. In this model, 6-OHDA-lesions induce motor manifestations in zebrafish and in mice, such as reduced locomotor ability, and the loss of dopaminergic neurons. Based on the 6-OHDA PD zebrafish model, compounds from a small molecules library were screened for rescue of the parkinsonian phenotype (Example 1, see below).
The screen was based on both the recovery of impaired locomotor behavior and dopaminergic neuronal loss.
Values were normalized for the mean of disease state in each experiment (disease=1). Each plot contains data from 3 independent experiments with a total of 24 larvae. As a control, zebrafish were treated with only the vehicle, ascorbic acid.
For these experiments, Tubingen (TU) wild-type zebrafish, a specific strain of wild-type zebrafish, were used.

[5] = cited from earlier work
mouse = settings: mouse, cited from earlier work
COX-2 = molecular target: T1, COX-2 (Homo sapiens, UniProt P35354); settings: cited from earlier work
T1 sequence (P35354 18-604): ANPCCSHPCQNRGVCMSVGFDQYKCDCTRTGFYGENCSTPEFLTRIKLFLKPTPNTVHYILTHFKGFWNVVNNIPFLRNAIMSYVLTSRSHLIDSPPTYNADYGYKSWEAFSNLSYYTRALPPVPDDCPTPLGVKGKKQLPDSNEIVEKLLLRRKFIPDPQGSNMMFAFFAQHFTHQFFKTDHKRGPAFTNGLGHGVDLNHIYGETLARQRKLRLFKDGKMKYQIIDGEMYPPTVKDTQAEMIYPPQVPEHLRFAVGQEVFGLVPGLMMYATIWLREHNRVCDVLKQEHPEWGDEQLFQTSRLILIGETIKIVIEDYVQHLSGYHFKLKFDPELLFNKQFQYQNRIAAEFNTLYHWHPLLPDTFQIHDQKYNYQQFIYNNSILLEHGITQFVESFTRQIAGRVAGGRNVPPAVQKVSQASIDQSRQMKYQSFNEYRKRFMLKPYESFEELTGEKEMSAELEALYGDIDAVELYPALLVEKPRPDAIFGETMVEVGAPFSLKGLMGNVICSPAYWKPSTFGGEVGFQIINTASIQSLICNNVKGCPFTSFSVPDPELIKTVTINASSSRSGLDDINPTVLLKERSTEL

[6] = in DMSO; cited from earlier work
[7] = test system: 6-OHDA treated zebrafish larvae; experiment: Rescue of Tyrosine hydroxylase (TH)-positive dopaminergic neurons in 6-OHDA zebrafish larvae; type: in vivo; settings: for Neurorescue: TH+ neurons at optimal dose, p; for Neuroprotective effect / recovery of TH+ neurons: at the optimal concentration of each molecule
Method: The 7 candidates also were tested in terms of rescue of dopaminergic neurons positive for Tyrosine hydroxylase (Th) in the substancia nigra pars compacta of the test animals. […] Results were normalized for healthy control values (healthy control=100% of neurons). As a control, zebrafish were treated with only the vehicle, ascorbic acid. ‘6-OHDA_ represents results in zebrafish receiving no treatment.
FIGS. 6E-6G show representative Z-projections of confocal stacks of whole-mount anti-TH immunohistochemistry in 6 days post-fertilization (dpf) of zebrafish larvae (age of the fish) control (FIG. 6E), 6-OHDA (FIG. 6F), and tapentadol treated-larvae (FIG. 6G).

rat = settings: rat, cited from earlier work
healthy wild type mice = experiment: Toxicity assay, welfare and necropsy (Example 6); settings: tramadol 10 mg/kg in combination with L-Dopa; L-Dopa 18 mg/kg; 24 h
Method: Their behavior was evaluated with open field tests for 1 h after i.p. injection. After 24 h, animals were sacrificed and necropsy was performed
9 week old NMRI female mice were used for this assay. Animals were tested for their welfare after two intraperitoneal injections of the test agents using the open field test. Necropsy was done after cervical dislocation. […] Benserazide at 12 mg/kg was administered 30 minutes prior to administration of these compounds, in all groups. Saline was given to the control group.
After benserazide administration, animals were monitored in the open field for 30 minutes for habituation. […] 24 hours after administration of the compounds, the animals were sacrificed and necropsy performed.
For administration of the various agents to the animals, two 700 ? L injections were administered 30 minutes apart.

[8] = in vivo; cited from earlier work
[9] = cited from earlier work; remark: listed apart in the source
dogs = settings: dog, in vivo, cited from earlier work
[10] = 0.01 to 11.4 μg/mL; cited from earlier work
[11] = test system: CY P1A2, CY P2C9, CY P2C19, CY P2D6, and CY P3A4; settings: cited from earlier work
[12] = cited from earlier work; remark: listed apart in the source
6-OHDA mouse model [13] = experiment: Cylinder test, 6-OHDA mice (Example 5); type: in vivo; set-up: Cylinder test: number of right turns: dose or concentration left out as unconfirmed
6-OHDA mouse model [14] = experiment: Rotarod test, unilateral striatal 6-OHDA mice (Example 5); type: in vivo; settings: daily i.p., dosages tested (C1 and C2)
6-OHDA mouse model [15] = experiment: Abnormal involuntary movements, 6-OHDA mice (Example 5); type: in vivo; settings: mouse, in vivo
Method: This condition results in a range of involuntary movements that can be evaluated by video tracking analyses. […] Evaluations were performed during two independent trials, 30 and 90 minutes after treatment administration. […] Nonetheless, forelimb and orofacial involuntary movements are extremely hard to detect, and reading errors occur, considering the size of the animals. Total abnormal involuntary movements are the sum of all 4 different involuntary movements evaluated and is the parameter often reported in the literature.
As FIGS. 17A-17F show, abnormal involuntary movements were evaluated using the cylinder test 28 days post injection. […] Values mean ě SEM (n=5-8).

[16] = oral 1,000-2,000 mg to steady state

COC(=O)C(c1ccccc1)C1CCCCN1 (stereo not shown) [Methylphenidate]
Freezing recovery [1]: more consistent freezing recovery

COc1ccc2cc(CCC(C)=O)ccc2c1 [nabumetone]
Embryo lethality ([2]; 18 μM): no dead embryos
Embryo lethality ([2]; 27 μM): all of the embryos were dead
Freezing recovery [1]: do not show an ability to recover freezing phenotype
Duration of freezing periods, recovery vs 6-OHDA treated larvae [1]: not recovered
Effect of co-administration with L-Dopa on locomotor recovery [3]: the same
Locomotor behavior rescue (total distance moved, number of jumps), confirmation of screen ([4]; 7 candidate molecules, 3 independent experiments): strong candidates
Optimal concentration [4]: 0.9 µM
Number of jumps: concentration validated as recovering the 6-OHDA induced behavior [4]: 0.456 µM
Total distance travelled, difference between treated larvae and disease control [4]: ~200 mm
Share of dose converted into unidentified metabolites ([5]; 1,000 mg oral dose): 50%
Share of dose converted to 6MNA ([5]; 1,000 mg oral dose): Approximately 35%
Absorption from the gastrointestinal tract ([5]; in vivo): well absorbed
LD50 (mouse): 4290 mg/kg
COX-2 inhibition (COX-2): poor COX-2 inhibitor
Solubility [6]: 50 mg/ml in
Neurorescue [7]: confirmed
Neuroprotective effect / recovery of TH+ neurons [7]: confirmed; also recorded: Recovery was observed
LD50 (rat): (mouse) or 3880 mg/kg

COc1ccc2cc(CC(=O)O)ccc2c1 [6MNA, 6-methoxy-2-naphthylacetic acid]
Printed only as 'It is 0.2-0.3%' (after plasma protein binding) ([5]; concentrations typically achieved following 1,000 mg of nabumetone): 0.2-0.3%
Bound to plasma proteins ([5]; in vivo): more than 99%
Elimination half-life [5, 16]: approximately 24 hours
Mean plasma clearance [5, 16]: 20 to 30 mL/min
Inhibition of prostaglandin synthesis (COX-2; most likely through binding to the COX-2 and COX-1 receptors): potent inhibitor

COC(=O)C1=C(C)NC(C)=C(C(=O)OC(C)C)C1c1cccc2nonc12 (stereo not shown) [Isradipine]
Effect of co-administration with L-Dopa on locomotor recovery [3]: lost its effect
Optimal concentration [4]: 0.045 µM
Effective concentration / peak, small range plot ([4]; phenotype recovery, total distance moved): 0.045 µM and 0.084 µM
Solubility [6]: 25 mg/ml in
Neurorescue [7]: confirmed

COc1cccc(C2(O)CCCCC2CN(C)C)c1 (stereo not shown) [tramadol]
Necropsy findings (healthy wild type mice): normal abdominal organs, with the exception of one that had a slight hyperemia in the small intestine

CC[C@@H](c1cccc(O[C@@H]2O[C@H](C(=O)O)[C@@H](O)[C@H](O)[C@H]2O)c1)[C@@H](C)CN(C)C [tapentadol-O-glucuronide]
Blood-brain barrier crossing [8]: lower permeability through the blood brain barrier
AUC, fold higher compared with normal renal function ([9]; mild renal impairment (CLCR=50 to <80 mL/min)): 1.5 fold
AUC, fold higher compared with normal renal function ([9]; moderate renal impairment (CLCR=30 to <50 mL/min)): 2.5 fold
Mean accumulation factor ([9]; multiple (every 6 hour) dose study, 75 to 175 mg tapentadol): 1.8
AUC, fold higher compared with normal renal function ([9]; severe renal impairment (CLCR=<30 mL/min)): 5.5 fold

Cc1cn([C@H]2C=C[C@@H](CO)O2)c(=O)[nH]c1=O [stavudine]
LD50 (dogs; iv): 1,680 mg/kg
LD50 (dogs; po): 2,000 mg/kg
LD50 ([2]; 6-OHDA disease-induced zebrafish larvae): >10 mM
LD50 ([2]; 6-OHDA zebrafish larvae): > 10,000 μM
Freezing recovery [1]: positive results; also recorded: reverted freezing
Duration of freezing periods, recovery vs 6-OHDA treated larvae [1]: recovered
Protein binding [10]: negligible
Effect of co-administration with L-Dopa on locomotor recovery [3]: not affected; also recorded: least effective; also recorded: not influenced
Therapeutic window ([4]; 6-OHDA zebrafish larvae): 50 to 70 µM
Optimal concentration [4]: 50 µM
Number of jumps: concentration validated as recovering the 6-OHDA induced behavior [4]: 50 µM
Total distance travelled, difference between treated larvae and disease control [4]: 400 mm
Inhibition of major cytochrome P450 isoforms [11]: not considered to inhibit
LD50 (mouse; in vivo, iv): 1,000 mg/kg
LD50 (mouse; in vivo, po): 1,000 mg/kg
Clearance ([12]; HIV-infected adult and pediatric patients, 1-hour IV infusion): 594 ± 164 mL/min
Accumulation with repeated administration ([12]; every 6, 8, or 12 hours): no significant accumulation
Renal clearance ([12]; healthy subjects receiving 80 mg PO): 272 mL/min
Renal elimination, share of the overall clearance ([12]; humans, regardless of the route): about 40%
Half-life ([12]; in adults): 48 to 90 min
Time of peak plasma concentrations after dosing ([12]; oral administration): ≤ 1 h
Cylinder test: number of right turns (6-OHDA mouse model [13]; parameter disregarded): phenotypic recovery in a very similar way to L-Dopa
Cylinder test: number of rearings (6-OHDA mouse model [13]; vs 6-OHDA group, daily i.p.): did not show recovery
Cylinder test: percentage of animals with tremor (6-OHDA mouse model [13]; vs 6-OHDA group, daily i.p.): did not show recovery
Cylinder test: percentage of contralateral paw use (6-OHDA mouse model [13]; vs 6-OHDA group, daily i.p.): did not show recovery
Rotarod: latency to fall and speed, recovery (6-OHDA mouse model [14]): did not have an effect
Neurorescue [7]: confirmed p < 0.09
Neuroprotective effect / recovery of TH+ neurons [7]: confirmed
LD50 (rat; in vivo, iv): 1,200 mg/kg
LD50 (rat; in vivo, po): 4,000 mg/kg
LD50 (rat): 4 g/kg (rat)
Induction of abnormal involuntary movements (6-OHDA mouse model [15]): None of the treatments, tapentadol or stavudine of the combination, induced involuntary movements
